Laboratory results: PubChem BioAssay AID1996
In brackets after ≈: the same amount, converted by molar mass.

conditions: buffer; pH 7.4; 200.0 µM

Point of comparison: `CN1CCCN(C(=O)c2ccc(Br)cc2)CC1`, solubility kinetic 41.4 µg/mL (≈ 139 µM). Against it:
- Br.C(CCCN1CCCCC1)CCN1CCCCC1 — within 1.5-fold, 61.8 µg/mL
- O=C1CC(N2CCN(c3ccc(F)cc3)CC2)C(=O)N1Cc1ccccc1 (stereo unspecified) — within 1.5-fold, 48.2 µg/mL (≈ 131 µM)
- COC(=O)/C(C#N)=C/c1c(Oc2cc(C)cc(C)c2)nc2ccccn2c1=O — 24-fold lower, 1.7 µg/mL (≈ 4.53 µM)
- CC(Oc1ccc(Cl)cc1)C(=O)N1CCCc2ccccc21 (stereo unspecified) — 20-fold lower, 2.1 µg/mL (≈ 6.65 µM)
- O=C(CC12CC3CC(CC(C3)C1)C2)Nc1c(F)cccc1F — lower, < 0.7 µg/mL
- Cn1c(N)cc(-c2ccc(F)cc2)c(C#N)c1=O — not separable, > 36.5 µg/mL
- NS(=O)(=O)c1cccc(NC(=O)CSc2nnc(C3CC3)n2-c2ccccc2)c1 — higher, > 64.4 µg/mL
- COc1cc(C(C)=O)ccc1OCC(=O)NCC(c1ccc(F)cc1)N1CCOCC1 (stereo unspecified) — higher, > 64.6 µg/mL
- N#CCCN(C(=S)NC(=O)C1CCCCC1)c1ccccc1F — higher, > 50 µg/mL
- CCOc1ccccc1C(=O)NCC(=O)NCC1CCCCC1 — 7.4-fold lower, 5.6 µg/mL (≈ 17.6 µM)
- O=C(NC1CCCC1)c1cc(-c2ccc(Cl)cc2)on1 — lower, < 0.3 µg/mL
- CCN1CCN(CC(=O)N2c3ccccc3Sc3ccccc32)CC1 — higher, > 53 µg/mL
- O=C(COC(=O)c1cc(=O)[nH]c(=O)[nH]1)Nc1cccc(Cl)c1 — higher, > 48.6 µg/mL
- O=C(Nc1cccnc1)c1ccc2ccccc2c1O — within 1.5-fold, 36.9 µg/mL (≈ 140 µM)
- O=C(O)CC1(CC(=O)Nc2ccc(F)cc2F)CCCCC1 — higher, > 46.7 µg/mL
- COc1cc2ccccc2cc1C(=O)Nc1ccc2oc(=O)ccc2c1 — lower, < 0.7 µg/mL
- Nc1nc(-c2ccc(Oc3ccccc3)cc2)c(CC(=O)O)s1 — higher, > 49 µg/mL
- Cc1ccsc1-c1nc(CN2CCN(C)C(=O)[C@@H]2C)c(C)o1 — within 1.5-fold, 40 µg/mL (≈ 125 µM)
- COc1cc(OC)c(C(=O)Nc2ccc3ccccc3c2)cc1OC — lower, < 0.7 µg/mL
- Cn1c(N)c(C(=O)Nc2cccc(Cl)c2)c(=O)n(C)c1=O — 17-fold lower, 2.5 µg/mL (≈ 8.1 µM)
- COc1ccc(C(C)(C)C)cc1NC(=O)C1CC(=O)N(C2CCCC2)C1 (stereo unspecified) — higher, > 53.8 µg/mL
- COc1ccc(CNC(=O)C(=O)NCc2cccnc2)cc1 — 2-fold lower, 20.9 µg/mL (≈ 69.8 µM)
- CCSc1nc2ccccc2c(=O)n1Cc1ccc(F)cc1 — lower, < 0.3 µg/mL
- CC(=O)c1sc2nsc(SCCN3CCOCC3)c2c1N — higher, > 51.5 µg/mL
- O=C1CC(=O)N(c2cccc(C(F)(F)F)c2)C(=O)N1 — not separable, > 40.8 µg/mL
- O=C(O)CN1C(=O)NC2(CCCc3ccccc32)C1=O (stereo unspecified) — not separable, > 41.1 µg/mL
- CC(C)NC(=O)C(=O)Nc1cc2c3c(c1)C(C)C(=O)N3CCC2 (stereo unspecified) — within 1.5-fold, 44.6 µg/mL (≈ 141 µM)
- COc1ccc(OC)c2nc3c(cc12)CCC3 — within 1.5-fold, 29 µg/mL (≈ 126 µM)
- CNc1nc2c(c(=O)n(C)c(=O)n2C)n1CCCc1ccccc1 — higher, > 49.1 µg/mL
- O=C(NCC1CCCO1)c1cc2c(s1)CCC2 (stereo unspecified) — not separable, > 37.7 µg/mL
- Cc1ccc(N(CN2CCCC2=O)C(=O)c2ccccc2)cc1 — higher, > 46.3 µg/mL
- CC(C)c1ccc(NC2CCCN(C(=O)c3cscn3)C2)cc1 (stereo unspecified) — higher, > 49.4 µg/mL
- N#Cc1ccc(OCC(=O)OCC(=O)c2ccc[nH]2)cc1 — higher, > 42.6 µg/mL
- CC(=O)c1c(C)[nH]c(C(=O)NCCc2c[nH]c3ccccc23)c1C — 30-fold lower, 1.4 µg/mL (≈ 4.33 µM)
- COC(=O)c1sc(NC(=O)COc2ccccc2C)nc1C — 69-fold lower, 0.6 µg/mL (≈ 1.87 µM)
- COc1cccc(C(=O)OCC(=O)NCc2ccc3c(c2)OCO3)c1OC — higher, > 56 µg/mL
- COc1ccc(-c2cnc(N)n2C)cc1 — 1.6-fold lower, 26 µg/mL (≈ 128 µM)
- CC(C)NC(=O)c1ccc(CN2CCc3ccccc3C2)cc1 — 16-fold lower, 2.6 µg/mL (≈ 8.43 µM)
- COc1ccc(CNC(=O)CN(c2ccc(C(C)=O)cc2)S(=O)(=O)c2ccc(C)cc2)cc1OC — 10-fold lower, 4.1 µg/mL (≈ 8.26 µM)
- N/C(=N\OC(=O)Nc1ccccc1)c1cccc(C(F)(F)F)c1 — within 1.5-fold, 27.9 µg/mL (≈ 86.3 µM)
- COc1cc(C=O)ccc1OC(=O)N1CCOCC1 — not separable, > 39.8 µg/mL
- Cc1ccc(S(=O)(=O)N2CCCCC2)cc1C(=O)N1C(C)CCCC1C (stereo unspecified) — higher, > 56.8 µg/mL
- Cc1cccc(NC(=O)[C@@H]2CCCN2S(=O)(=O)c2ccc(Cl)cc2)c1 — within 1.5-fold, 37.9 µg/mL (≈ 100 µM)
- CC(=O)N1CCN(C(=O)c2cccc(S(=O)(=O)N3c4ccccc4CC3C)c2)CC1 (stereo unspecified) — higher, > 64.1 µg/mL
- COc1ccc(N2Cc3ccccc3C2=O)cc1 — 3.2-fold lower, 12.8 µg/mL (≈ 53.5 µM)
